Values joined by “and” are separate entries in the source; they are usually repeats but may differ in a detail not shown here. Identical values can stand only once.
Columns and labels:
MDCK cells = format: cell-based
MCP-1 = system: MCP-1; design: species or system mice; conditions: mouse, in vivo

## MHSATAAQLETLRLFKFP [ANMV-AH]
MDCK cells
  cell binding activity when compared to AH2 peptide: 15%

## DRLFFKCIYRRLKYGLKRG [AH3]
MDCK cells
  cell binding and internalization of FITC labeled peptide: did not bind to the membrane as well as AH2, they did all bind and were internalized to the cell at different levels

## MPRLFKIYAKNYFLTYPN [TYLCV-AH]
MDCK cells
  cell binding activity when compared to AH2 peptide: 25%

## RTLSLLRRLFFKSDLGFL [AHV-AH]
MDCK cells
  cell binding activity when compared to AH2 peptide: 40%

## DRLFFKCIYRRFKYGLKRG [AH5]
MDCK cells
  cell binding and internalization of FITC labeled peptide: did not bind to the membrane as well as AH2, they did all bind and were internalized to the cell at different levels

## flagellin
MCP-1
  plasma MCP-1 level: 3000 pg/mL and 2600 pg/mL

## DRLFFKCVYRLFKHGLKRG [AH4]
MDCK cells
  cell binding and internalization of FITC labeled peptide: did not bind to the membrane as well as AH2, they did all bind and were internalized to the cell at different levels

## KRLFKLSYIETRYMASDK [SWS-AH]
MDCK cells
  cell binding activity when compared to AH2 peptide: 24%
